Data set [1] relates to platelet aggregation triggered by AA. Nature of the data set: Arachidonic acid (AA)-induced platelet aggregation, whole blood aggregometry. It is filed as cell-based, human. Particulars: human whole blood; for IC50: Platelet. The protocol:
Blood from 20 non-smoking, young (aged from 22 to 45 years, median 27), healthy volunteers was collected by venipuncture into plastic tubes containing heparin sodium (170 IU/10 mL; Zentiva, Prague, Czech Republic). No medication had been taken by volunteers 14 days prior blood collection and no alcohol had been consumed 12 h before the blood draw.
A total of 300 µL of whole blood was diluted with the same volume of 0.9 % sodium chloride (B.Braun, Melsungen, Germany) preheated to 37 °C and incubated with 5 µL of a tested compound dissolved in DMSO (Penta, Prague, Czech Republic) at a final concentration of 0.8% for 3 min at 37 °C. Platelet aggregation was then induced by addition of collagen (Diagnostica a.s., Czech Republic), arachidonic acid (AA) or Thrombin Receptor Activating Peptide (TRAP) (Roche Holding AG, Basel, Switzerland) and monitored for 6 min. The dose of inducer was initially set to the minimal concentration which caused maximal aggregation. The second calibration was carried out by use of standards, 4-methylcatechol in the case of AA- and collagen-triggered aggregation (Sigma-Aldrich) or vorapaxar for thrombin aggregation (Selleck Chemicals GmbH, Munich, Germany). […] For comparison, also the clinically used standard ASA was employed.

The subject of data set [2] is platelet aggregation induced by collagen. Nature of the data set: Collagen-induced platelet aggregation, whole blood aggregometry. The data set is classed as cell-based, human. Particulars: Platelet; human whole blood; read-out: IC25 (Mean ± SD, μM) on Collagen-Induced Platelet Aggregation. The protocol:
Blood from 20 non-smoking, young (aged from 22 to 45 years, median 27), healthy volunteers was collected by venipuncture into plastic tubes containing heparin sodium (170 IU/10 mL; Zentiva, Prague, Czech Republic). No medication had been taken by volunteers 14 days prior blood collection and no alcohol had been consumed 12 h before the blood draw. The protocol was approved by the Ethics Committee of the Faculty of Pharmacy, Charles University on May 31, 2019.
A total of 300 µL of whole blood was diluted with the same volume of 0.9 % sodium chloride (B.Braun, Melsungen, Germany) preheated to 37 °C and incubated with 5 µL of a tested compound dissolved in DMSO (Penta, Prague, Czech Republic) at a final concentration of 0.8% for 3 min at 37 °C. Platelet aggregation was then induced by addition of collagen (Diagnostica a.s., Czech Republic), arachidonic acid (AA) or Thrombin Receptor Activating Peptide (TRAP) (Roche Holding AG, Basel, Switzerland) and monitored for 6 min. The dose of inducer was initially set to the minimal concentration which caused maximal aggregation. The second calibration was carried out by use of standards, 4-methylcatechol in the case of AA- and collagen-triggered aggregation (Sigma-Aldrich) or vorapaxar for thrombin aggregation (Selleck Chemicals GmbH, Munich, Germany). The final concentrations of inducers were in the range of 0.16–2.42 µg/mL for collagen, 25–196 µM for AA and 0.8–9.8 µM for TRAP. For comparison, also the clinically used standard ASA was employed.

Data set [3] has as its system Nrf2. Conditions: cited from earlier work.
For data set [4], the system named is anti-inflammatory activity. On the set-up: method as in PMID 30614688, doi:10.1016/j.jff.2019.01.047. Conditions: 10 μM; cited from earlier work.
For data set [5], the system named is hepatic HepG2. On the set-up: method as in PMID 35547925, PMID 30614688, doi:10.1016/j.jff.2019.01.047. Particulars: cited from earlier work.
The test system of data set [6] is human monocytic cell line THP-1. On the set-up: method as in PMID 35547925, PMID 30614688, doi:10.1016/j.jff.2019.01.047. Conditions: cited from earlier work.
On the set-up of data set [7]: method as in PMID 10956160, PMID 12065208. Conditions: chronic high dose studies; cited from earlier work.
Data set [8] relates to rats. On the set-up: method as in PMID 10956160, PMID 12065208. Particulars: cited from earlier work.
The subject of data set [9] is mice. Also on record: method as in PMID 10956160, PMID 12065208. Conditions: cited from earlier work.
The mark [10] stands for this setting: class assigned by colour of the drawn structure, read-out: IC50 class, colour key of Figure 3.
The mark [11] stands for this setting: read-out: IC50 (Mean ± SD, μM) on Arachidonic Acid-induced Platelet Aggregation.

We go through 2 compounds from article PMC8774223, “Comparison of Antiplatelet Effects of Phenol Derivatives in Humans” (Biomolecules, 2022).

Where “and” joins values, the source holds several entries; their conditions need not be identical. Identical values can stand only once. Entries after “also recorded” stand apart in the source; their conditions may differ. Like-named read-outs stand apart in the source and are kept apart here.

A word on the IC50: it is the concentration that gives 50% inhibition. One may read the IC25 as the concentration needed for an effect of 25%.

Consider `CCc1ccc(O)c(OC)c1` [2-methoxy-4-ethylphenol], for which the IC50 was < 3 µM in data set [1] (setting [10]) and 1.37 ± 0.28 µM in [1] (setting [11]). Besides, the IC25 in data set [2] was 5.07 ± 4.05 µM. For the same compound, the “Activation of the Nrf2 pathway after its suppression by lipopolysaccharide” value in data set [3] (10 μM) was “activated the Nrf2 pathway”. The “Activation of the Nrf2 pathway” value in data set [3] (only concentrations higher than 650 μM were tested) was “activated the Nrf2 pathway”. Also, in data set [4], the Anti-inflammatory activity entry is “anti-inflammatory activity was observed”. Also, in [5], the “Concentration from which mildly toxic” value is “about 660 μM and ~100 mg/L”. The “Concentration below which toxicity was not observed” value in [6] is ≥ 5000 µM.

Regarding `C=CCc1ccc(OC)c(OC)c1` [4-allyl-1,2-dimethylcatechol, 4-allyl-1,2-dimethoxybenzene], the IC50 in data set [1] (setting [10]) is > 100 µM; in [1] (setting [11]) it was ~61 µM. Also, the “Activity towards AA-induced aggregation (in words)” value in data set [1] was “inactive; also recorded: inactive or only weakly active”. The Rat plasma levels in data set [7] is 4–46 μM and 0.66–8.25 μg/mL. In addition, the Tumors result in [8] and in [9] was “elicited liver but also other tumors” in each case.
